Assay results: publication PMC6023200, “High content, high-throughput screening for small molecule inducers of NF-κB translocation” (PLoS ONE, 2018)
Like-named read-outs stand apart in the source and are kept apart here.

Legend:
[1] = test system: NF-κB nuclear translocation in HUVECs; assay: NF-κB nuclear translocation assay (high content imaging, p65 NUC/CYT); assay type: cell-based, Human; conditions: for EC50: Homo sapiens, HUVEC; for NF-κB nuclear translocation in response to different inducers vs negative control (1% DMSO): HUVECs stimulated 30 min, 100 ng/mL LPS, 10 μM PMA, 10 μM prostratin, 10 μM calcimycin
Experimental: HUVEC cells were seeded at 2500 cells/well in 384-well plates in EBM^TM-2 Basal Medium plus 2% FBS overnight at 37°C in a humidified 5% CO2 incubator. Compounds (columns 3–22) and DMSO (columns 1, 2, 23 and 24) were added to cells using a JANUS Automated Liquid Handling Workstation (Perkin Elmer). […] Plates were incubated at 37°C for 30 min in a humidified 5% CO2 incubator following addition of compounds and controls.
All washing and immunofluorescence staining steps were performed using an EL406 Automated Washer Dispenser (Biotek). Briefly, cells were fixed with 4% paraformaldehyde at RT for 15 min. Cells were washed and incubated at RT for 30 min in 0.05% Triton X-100, 0.25% IgG-free BSA, 0.25% normal goat serum in Tris-buffered saline. Cells were stained with the p65 Mouse Monoclonal Primary Antibody (Santa Cruz, sc-8008) at a final concentration of 1 μg/mL in TBS, 0.05% Triton X-100,.25% IgG-free BSA and incubated overnight at 4°C. Cells were washed and stained with the Alexa Fluor 488 Goat anti-Mouse IgG (H+L) cross-adsorbed secondary antibody at a final concentration of 4 μg/mL in TBS, 0.05% TritonX-100, 0.25% IgG-free BSA for 1 hr at RT in the dark. Cells were washed and 1 μg/mL of DAPI added. Plates were sealed and imaged with an ImageXpress Micro XLS High Content Screening System (Molecular Devices) using FITC and DAPI channels at 20X magnification. Nine fields were captured for each well.
Images were analyzed using the MetaXpress software (Molecular Devices) by creating a custom analysis program in the Custom Module Editor. Briefly, DAPI was used to identify the nucleus of the cell and a nuclear mask created. A secondary mask was created by enlarging the nucleus mask to identify the whole cell. The whole cell mask was then overlaid on the nucleus mask to identify the cytoplasm. The average p65 (NF-κB) pixel intensities in both the nucleus and cytoplasm were quantified and a value assigned to each. A translocation value was calculated by determining the ratio of the average nuclei intensity to the average cytoplasmic intensity of p65 (NUC/CYT). For assay development, the Kruskal-Wallis non parametric test was used to compare the medians of the different groups after correcting for multiple comparison with Dunn’s multiple comparison test using GraphPad Prism 7.04 software. For assay validation, the mean (μ), standard deviation (SD) and coefficient of variation (CV) for nuclear translocation were calculated for the maximum (TNF-α) and minimum (DMSO) activation control wells, maximum and minimum activation plates as well as CVs for 320 test wells. The Z’ (measure of spread between maximum and minimum control signals) was calculated for each plate using the formula: Z^′=1−3(SDMax+SDMin)/|μMax−μMin|, where max is average maximum signal and min is average minimum signal. The EC50 was defined as the concentration that gave half the maximal response.

[2] = HepG2 cytotoxicity assay (CellTiter-Glo); conditions: human, HepG2 cells
Experimental: (§1) Cells were seeded in 384-well plates at 1800 cells per well and incubated in a humidified incubator at 37°C, 5% CO2. Compounds were solubilized in 100% DMSO and assayed using a 10-point three-fold serial dilution. Compounds were added 24 hours post cell seeding to a final assay concentration of 1% DMSO and highest compound concentration of 100 μM. CellTiter-Glo® reagent (Promega) was added to 384-well plates after a 72-hour incubation period. Relative luminescent units (RLU) were measured using a Synergy 4 plate reader (Biotek). Raw data were normalized using the average RLU value from negative control (1% DMSO) and expressed as % growth. Growth inhibition curves were fitted using the Levenberg–Marquardt algorithm. The IC50 was defined as the compound concentration that produced 50% of the growth inhibitory response.

HepG2 human cell line = assay: HepG2 cytotoxicity assay (CellTiter-Glo); conditions: HepG2 IC50 / HUVEC EC50
Experimental: as §1

in vitro = conditions: human
Experimental: as §1

[3] = 0.5 h, NF-κB nuclear translocation, 10-point 3-fold dose response from 100 μM, 30 min, mean ± SD of three independent experiments (* N = 2), unit inferred, μM, read-out: EC50 = Activity in HUVECs
[4] = HUVECs, representative curve of three experiments, 4-parameter fit, dose response from 100μM, unit inferred, read-out: EC50 (Fig 8 dose response curve)

Molecule | EC50 [1, 3] [µM] | IC50 at 72 h [2] [µM] | selectivity index (SI) = IC50/EC50 (HepG2 human cell line) | further results
CN(C)c1ccc(/C=C2\SC(=S)N(N)C2=O)cc1 [IDR-0605186] | 15 ± 5.9 | > 50 | >3.3 | –
CC(=O)O[C@@]12C[C@@H](C)[C@@]3(O)[C@@H](C=C(CO)C[C@]4(O)C(=O)C(C)=C[C@@H]34)[C@@H]1C2(C)C [prostratin, reference compound] | – | – | – | NF-κB nuclear translocation in response to different inducers vs negative control (1% DMSO) ([1]; 10 ng/mL TNF-α): no difference
Nc1ccc2c(c1)Cc1cc([N+](=O)[O-])ccc1-2 [IDR-0113345] | 8.6 ± 8.9 | – | 6.3 | IC50 (in vitro): 54 ± 5 µM
O=C1C(=Cc2ccc(-c3ccc(Cl)cc3)o2)SC(=S)N1Cc1ccco1 [IDR-0518296] | 2.4 ± 1.4 | 17 ± 12 | 7.1 | –
O=C1NC(=S)SC1=Cc1ccc(O)cc1O [IDR-0133275] | 18 ± 1.1 | > 100 | >5.5 | –
CC(=NNc1nc(Cl)c(C#N)c(Cl)c1Cl)c1ccccn1 [IDR-0112703] | 6.3 ± 6 | 13 ± 5 | 2.1 | –
CCCCNCCCCOc1ccc2ccccc2c1 [IDR-0137875] | 15 ± 3 | 16 ± 0.71 | 1.1 | –
COC(=O)C1=C(C)OC(N)=C(C#N)C1c1ccc(Cl)c(Cl)c1 (centres unmarked) [IDR-0122120] | 6.6 ± 8.1 | 40 ± 5 | 6.1 | –
Oc1ccccc1/N=C/c1c(O)c(Br)cc2oc3c(c12)CCCC3 [IDR-0139144] | 12 ± 10 | 18 ± 4.2 | 1.5 | –
lipopolysaccharide [LPS, reference compound] | – | – | – | NF-κB nuclear translocation in response to different inducers vs negative control (1% DMSO) ([1]; 10 ng/mL TNF-α): no difference
O=C(/C=C1\C=CS(=O)(=O)C1)c1ccccc1 [IDR-0520796] | 5 ± 5.6 | 6.6 ± 1.6 | 1.3 | –
O=[N+]([O-])c1ccc(-c2nc(Cl)oc2-c2ccc([N+](=O)[O-])cc2)cc1 [IDR-0515158] | – | 86 ± 17 | 33 | EC50 ([1]; 0.5 h, read-out: EC50 = Activity in HUVECs): 2.6 ± 0.53 µM; EC50 ([1]; read-out: EC50 (Fig 8 dose response curve)): 2.2 µM
CNc1ccc2oc(C[C@H]3O[C@@]4(CC[C@H]3C)O[C@H]([C@H](C)C(=O)c3ccc[nH]3)[C@H](C)C[C@H]4C)nc2c1C(=O)O [calcimycin, reference compound] | – | – | – | NF-κB nuclear translocation in response to different inducers vs negative control (1% DMSO) ([1]; 10 ng/mL TNF-α): no difference
Cc1cc(OCCCNCCO)cc(C)c1Cl [IDR-0137368] | 17 ± 14 | 19 ± 4.9 | 1.1 | –
CCOC(=O)C(Cc1ccccc1)NC(=O)c1ccccc1 (centres unmarked) [IDR-0517069] | 10 ± 1.6 | > 100 | >10 | EC50 [1, 4]: 8.1 µM
TNF-α | – | – | – | NF-κB nuclear translocation in response to different inducers vs negative control (1% DMSO) ([1]; 10 ng/mL TNF-α): most robust NF-κB nuclear translocation; time of maximum NF-κB activation post stimulation ([1]; HUVECs, 10 ng/mL TNF-α, fixed at 15, 30, 45 and 60 min): 30 min; EC50 of NF-κB nuclear translocation ([1]; HUVECs, 10-point 3-fold dilutions from 100 ng/mL, 30 min, across three independent experiments): 0.3 to 0.6 ng/mL
N#Cc1c(Cl)nc(N2CCOCC2)c(Cl)c1Cl [IDR-0112566] | 3.8 ± 1.4 | 28 ± 0.7 | 7.4 | EC50 [1, 4]: 2.1 µM
CCOc1cc(C=C(C#N)c2nc(-c3ccc(OC)cc3)cs2)ccc1O [IDR-0605187] | 5.9 ± 3.4 | 51 ± 31 | 8.6 | EC50 [1, 4]: 3.1 µM
COc1ccc(Br)cc1/C=C(\C#N)c1nc2ccc(C)cc2[nH]1 [IDR-0605188] | 4.7 ± 3.8 | 17 ± 13 | 3.6 | –
Cc1cc(C)c2c(N)c(C(=O)c3ccc(Br)cc3)sc2n1 [IDR-0112706] | 13 ± 4.5 | 27 ± 3.5 | 2.1 | –
CCCCCCCCCCCCCC(=O)O[C@@H]1[C@@H](C)[C@@]2(O)[C@@H](C=C(CO)C[C@]3(O)C(=O)C(C)=C[C@@H]23)[C@@H]2C(C)(C)[C@]12OC(C)=O [PMA, phorbol myristate acetate, reference compound] | – | – | – | NF-κB nuclear translocation in response to different inducers vs negative control (1% DMSO) ([1]; 10 ng/mL TNF-α): no difference
Cc1nn(-c2ccccc2)c2c1C(c1ccc(Cl)c(Cl)c1)C(C#N)=C(N)O2 (centres unmarked) [IDR-0516961] | 25 ± 17 | 46 ± 18 | 1.8 | –
O=c1oc2ccccc2c2nn(Cc3ccccc3)nc12 [IDR-0131600] | 17 ± 3.7 | 32 ± 0.7 | 1.9 | –
